{"source": "ChEMBL document CHEMBL1201862", "about": "“PubChem BioAssay data set” (2004)", "target": "Envelope glycoprotein gp160 (Human immunodeficiency virus 1, UniProt Q6QLK5)", "sequence (Q6QLK5 whole entry, the tested form may be a part)": "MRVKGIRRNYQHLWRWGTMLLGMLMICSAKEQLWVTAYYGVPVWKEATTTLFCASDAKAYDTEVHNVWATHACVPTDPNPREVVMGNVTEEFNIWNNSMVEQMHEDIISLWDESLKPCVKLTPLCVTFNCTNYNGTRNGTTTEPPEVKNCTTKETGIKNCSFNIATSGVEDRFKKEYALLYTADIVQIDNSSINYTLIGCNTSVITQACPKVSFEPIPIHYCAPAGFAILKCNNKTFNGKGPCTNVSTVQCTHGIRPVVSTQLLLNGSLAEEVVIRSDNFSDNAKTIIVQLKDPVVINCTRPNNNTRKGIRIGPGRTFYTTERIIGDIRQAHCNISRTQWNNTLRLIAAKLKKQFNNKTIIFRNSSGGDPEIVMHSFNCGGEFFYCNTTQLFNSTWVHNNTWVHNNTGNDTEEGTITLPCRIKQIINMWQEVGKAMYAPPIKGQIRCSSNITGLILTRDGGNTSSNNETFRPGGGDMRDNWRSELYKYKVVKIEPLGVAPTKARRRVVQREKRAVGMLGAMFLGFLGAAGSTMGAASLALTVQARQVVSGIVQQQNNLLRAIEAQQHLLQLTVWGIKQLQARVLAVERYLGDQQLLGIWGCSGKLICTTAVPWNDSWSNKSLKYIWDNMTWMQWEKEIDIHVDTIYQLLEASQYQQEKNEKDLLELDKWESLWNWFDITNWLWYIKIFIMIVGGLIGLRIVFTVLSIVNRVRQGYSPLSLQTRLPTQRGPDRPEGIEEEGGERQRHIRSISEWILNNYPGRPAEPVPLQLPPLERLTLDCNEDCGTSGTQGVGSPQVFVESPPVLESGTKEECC", "assay": "inhibitors of HIV fusion peptide binding, primary screen, biochemical, uHTS, fluorescence dequenching (AID 1986)", "note": "Activity calls are given as the source filed them. Rule as the data show it: actives have a measured IC50 and inactives only a lower limit."}
{"compound": "O=C(N/N=C/c1cc(Cl)cc([N+](=O)[O-])c1O)c1ccccc1NS(=O)(=O)c1cccs1", "values": [{"measurement": "IC50", "result": "13.6 µM (active)"}]}
{"compound": "COc1cc(OC)c2c(O)c3c(c(-c4c5c(c(O)c6c(OC)cc(OC)cc46)CO[C@@H](C)[C@H]5O)c2c1)[C@H](O)[C@H](C)OC3", "values": [{"measurement": "IC50", "result": "10.1 µM (active)"}]}
